Assay [1] deals with B. cinerea. Description: ELISA-based inhibition assay of B. cinerea growth. The format is cell-based, Botrytis cinerea. The note with it: compared to hydrophobins from T. harzianum strains T22 and M10. The source says:
FIG. 4. Antifungal effect of HYTLO1 on B. cinerea growth compared to similar hydrophobins purified from T. harzianum strain T22 and T. harzianum strain M10. Assay protocol is described in Lorito M. et al. 1994. Microbiology UK, 140:623-629. Numbers on the left side indicate micro molar concentration of HYTLO1 used. T22 and M10=hydrophobin from strain T22 and M10, respectively. The inhibition of the pathogen colony is indicated by the reduced intensity of the dark color in the wells compared to control (C).
(ELISA stands for enzyme-linked immunosorbent assay.)

The subject of assay [2] is tomato. Description: tomato root development (seeds, cuttings). It counts as in vivo. The protocol: FIG. 9: Effect of purified HYTLO1 application on tomato plant and root development. Tomato roots (left) and tomato cuttings (right) were dipped in a HYTLO1 solution of 0.018 μM.
In order to investigate the effect of HYTLO1 on the development of plants, either at the level of seed germination, germling formation and survival, root formation, stem elongation and thickness, foliar development, as well as general plant size, various experiments were performed with the purified protein. […] The protein clearly stimulated rhizogenesis on different plants. […] Experiments on plants were performed in vivo by watering and spraying tomato plants with a HYTLO1 0.01 μM solution as described in the legend of FIG. 10. In these experiments, the effect of HYTLO1 was also compared with that of the commercial biocontrol strain T. harzianum T22 (applied as spore suspension according the typical application rate of commercial products) and that of the germinating hormone 1-naphthaleneacetic acid (GERMON E—produced by L. Gobbi, Italy) (applied at the typical application rate of commercial products). Applications were made once per week for one month by watering the tomato plants. Results, expressed in terms of plant height and length, root length and weight, number of leaves, stem diameter and weight, are combined and shown in FIG. 10 and FIG. 11.

Assay [3] relates to tomato leaves. Put plainly: activation of tomato plant defense responses after leaf injection. It counts as in vivo. As for the experimental part:
FIG. 5: Effect of purified HYTLO1 (5 μM) injected on tomato leaves after 48 hours under UV light. Fluorescence is due to accumulation of compounds related to plant defense response.
FIG. 6: Effect of purified HYTLO1 ([…]) on the activation of tomato plant defense responses. Leaves were injected with […] of the protein solution and analyzed after 24 and 48 hours for the production of: (A) anion superoxide (XTT assay, mg p.s.=milligram of dry weight), (B) SOD activity (U/mg proteins), (C) ROOH peroxide accumulation (FOX1 assay), (D) LOX activity, (E) phytoalexin rishitin accumulation (g f.w.=gram of leaf fresh weight). Values are means+S.E. Methods used are the followings. Lyophilized plant tissues (10 mg) from HYTLO1-injected and -non injected tomato leaves were collected at different time points after inoculation (from 6 to 48 h) and homogenized. Anion superoxide was detected by measuring the reduction of 2,3-bis(2-methoxy-4-nitro-5-sulfophenyl)-5-[(phenylamino) carbonyl]-2H-tetrazolium hydroxide (XTT) to formazan, according to Sutherland, M. W., and B. A. Learmonth, 1997, Free Radical Research, 27:283-289, with modifications reported by Castoria, R., et al., 2003, Phytopathology, 93:564-572. Absorbance at 490 nm was measured in a microplate reader. XTT levels were expressed as mean absorbance values mg-1±standard errors. The activities of SOD, pH 7.8 and 10.0 (EC 1.15.1.1) and LOX enzymes (EC 1.13.11.12) were quantified as described by Reverberi M, et al., 2005, Free Radical Research, 39:637-647. Total hydroperoxides (ROOH) were detected by using the FOX spectrophotometric assay by monitoring the oxidation of xylenol orange at 560 nm (Ferrous ion oxidation xylenol orange: FOX-1) (Banerjee D, et al., 2003, Clinica Chimica Acta, 337:147-152). Quantification of the phytoalexins rishitin was performed by treating the leaf samples with methylene chloride (2 ml) in the presence of 100 mg of BHT. The tubes were left in a fume hood for 15/20 minutes and occasionally shaken. The extracts were filtered on filter paper Whatmann 3 MM and dried under nitrogen flow. Rishitin was quantified by GC-MS as described in Fanelli et al., 1992, Natural Toxins 1: 136-146.
FIG. 7: Effect of purified HYTLO1 on the activation of tomato plant defense responses. Leaves were injected with HYTLO1 at the indicated concentrations and analyzed after 48 hours by Real Time PCR for the accumulation of PR (Pathogenesis-Related)-proteins PR1, PR2 and PIN2 RNA (for methods see Tucci M., et al., 2011, Molecular Plant Pathology, 12:341-354) Values indicated the n. of fold increase vs. untreated control.
We analyzed the plant biochemical reaction to HYTLO1, which resulted stimulatory for the formation of the superoxide anion and hydrogen peroxide, for anion superoxide dismutase (SOD) and LOX activity, and the accumulation of the phytoalexin rishitin (FIG. 6).

Assay [4] concerns Arabidopsis thaliana. Description: growth of Arabidopsis. The format is in vivo. The note with it: 0.01 μM drench every two days for one month. The protocol:
FIG. 12: Effect of purified HYTLO1 on the growth of Arabidopsis (A), percentage seed germination of cucumber (B) and plantlet development of Lotus japonicus (C). A: Arabidopsis thaliana (Columbia-0: Col-0) seeds were sown in Levington's F2 compost plus sand (JFC Munro, Devon; http://www.jfcmonro.com) and chilled for 2 days at 4° C. Plants were grown under short-day conditions (10 h light) in a controlled environment chamber, at 22° C. during the day and 18° C. at night with 60% relative humidity for 5-6 weeks before transplanting. Ten ml of sterile solutions of HYTLO1 were drenched every two days at concentrations 0.072 μg/ml (0.01 μM) for one month in each pot containing 100 ml of soil and 1 Arabidopsis plant. Untreated plants were used as controls. B: Sterile cucumber seeds were placed on magenta box containing half-strength Murashige and Skoog salt (MS) medium (ICN Biomedicals) containing 1% agar and 1.5% sucrose, adjusted to pH 5.7, and vernalized for 2 days at 4° C. in the absence of light. A sterile solutions of HYTLO1 was added to the substrate at final concentration of 10^−8 M before the solidification of agar. C: The same concentration of HYTLO1 was used in the agarized medium used for the L. japonicus test. […]

Setting [5] is: 0.15, 2.5, 5.0 mM, 24 and 48 hours.

Some results are limits rather than exact numbers.

On to “HYTLO1: about 7 KDa Type II hydrophobin protein from Trichoderma longibrachiatum strain MK1, 71 aa, SEQ ID NO: 1”, for which, in assay [1], the “antifungal effect on B. cinerea growth” value is given as “strong antifungal effect”. For the same substance, the “concentration promoting root growth and development” value in assay [2] (assays on cuttings) was no less than 0.31 µM. Further, the “de novo root formation on tomato cuttings” value in assay [2] (cuttings dipped in 0.075 and 0.018 μM, after 15 days, no roots in controls) is listed as “formed de novo roots”. Moreover, in assay [2] (tomato seeds germinated with HYTLO1 10^−6 to 10^−9 M, data not shown), the “root apparatus of plantlets vs untreated control” value is listed as “more than double”. The “accumulation of fluorescent compounds under UV light” value in assay [3] (5 μM injected on tomato leaves, after 48 hours) is “accumulation of fluorescent compounds”. In assay [3] (setting [5]), the LOX activity entry is reported as “stimulatory”; the “accumulation of the phytoalexin rishitin” value is recorded as “stimulatory”; the “anion superoxide dismutase (SOD) activity” value is recorded as “stimulatory”; the “formation of hydrogen peroxide (ROOH, FOX1 assay)” value is recorded as “stimulatory”. Moreover, in assay [3] (setting [5]), the “formation of the superoxide anion (XTT assay)” value was “stimulatory”. The “defense responses in leaves distant from the site of application” value in assay [3] (tomato leaf injection) is recorded as “systemic effect”. In addition, the “activation of defense-related genes PR1, PR2 and PIN1 (RT-PCR)” value in assay [3] (tomato leaves, 48 hours) is “induced the activation”. The growth promotion effect result in assay [4] is “confirmed”.

Values taken from patent publication US10875898B2, “Bioactive protein, use thereof and method for its production” (Koppert B.V., priority 2014, dated 2020).
